Results: patent US8216644B2, “Controlling wood staining and color during post-harvest processing” (Purdue Research Foundation, priority 2006, dated 2012)

Key:
[1] = test system: freshly cut black walnut wood
[2] = test system: freshly cut sugar maple wood; assay: test strip assay on freshly cut wood, sugar maple

NC(N)=O.OO [hydrogen peroxide urea adduct]
staining of wood ([1]; 0.5 and 1.0% (w:w) concentration range, FIG. 4): visible staining | staining of wood (experimental spots) ([1]; test strips 0.5, 1.0, 5.0 and 10% (w:w), FIG. 2): visible on top of the background staining | staining of wood at 10% ([2]; 10% (w:w), FIG. 1): chemical breakdown of the staining due to bulk oxidation | background gray scale values (bg), relative darkness ([2]; image analysis of FIG. 3, plot profile, FIG. 5): increase in wood darkening with increasing hydrogen peroxide urea adduct concentrations | concentration range in which the staining reaction appears saturated ([2]; test strips 0, 0.5, 1.0, 5.0 and 10% (w:w), FIG. 1): 0.5-1.0% | staining reaction over concentration range ([2]; test strips 0.05, 0.1, 0.5 and 1.0% (w:w), FIG. 3): shows a dose response curve
